Legend:
L1210 [1] = assay: Growth inhibition of L1210 cells in culture in the first 48 hours of exposure at a concentration of 1 x 10e-5 M; format: functional; settings: Mus musculus, L1210, 48 h
L1210 [2] = assay: Growth inhibition of L1210 cells in culture in the first 48 hours of exposure at a concentration of 5 x 10e-6 M; format: functional; settings: Mus musculus, L1210, 48 h
L1210 [3] = assay: Growth inhibition of L1210 cells in culture in the first 48 hours of exposure at a concentration of 5 x 10e-5 M; format: functional; settings: Mus musculus, L1210, 48 h
[4] = Ionization constant of the compound; format: physicochemical

pKa [4]: 8.8
SMILES: Nn1ccn([C@@H]2O[C@H](CO)[C@@H](O)[C@H]2O)c(=O)c1=O
inhibition at 10 µM (L1210 [1]): 20%
inhibition at 5 µM (L1210 [2]): 15%
inhibition at 50 µM (L1210 [3]): 25%
